Experimental data reported in patent publication US9833497B2, “Human originated EGF domain proteins and use of the same” (CHENGDU SOURCEBIO LIMITED-LIABILITY COMPANY, priority 2013, dated 2017).

What was measured:
Type in all cases: cell-based
Pseudomonas aeruginosa = experiment: MIC against Gram-negative bacteria: Pseudomonas aeruginosa
In short: (§1)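 Growth inhibition by human EGF domain proteins was scored in LB liquid culture seeded at 5×10^5 CFU/mL. Protein was applied as a two-fold dilution series in triplicate, with shaking incubation at 37° C; MIC is the lowest concentration giving no growth.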

E. coli BL21 = experiment: MIC against Gram-negative bacteria: E. coli BL21; settings: for MIC / MIC (μg/mL) E. coli BL21 / MIC against E. coli BL21: E. coli BL21
In short: as §1

Moraxella catarrhalis = experiment: MIC against Gram-negative bacteria: Moraxella catarrhalis
In short: as §1

E. coli DH5α = experiment: Antibacterial activity: MIC and growth curve against E. coli DH5α in 96-well plate; settings: minimal inhibitory concentration against E. coli DH5α; 96-well plate, 5×10^5 CFU/mL, 37° C., judged after 8 h
In short: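 MIC taken as lowest protein level with no bacterial growth, tracked by A600 every 30 min during 37 °C, 175 rpm culture. Two-fold protein series 50-12.5 μg/mL final, triplicate wells, against 5×10^5 CFU/mL of LB-washed mid-log cells.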

Enterobacter cloacae = experiment: MIC against Gram-negative bacteria: Enterobacter cloacae
In short: as §1

Serratia marcescens = experiment: MIC against Gram-negative bacteria: Serratia marcescens
In short: as §1

Klebsiella pneumonia = experiment: MIC against Gram-negative bacteria: Klebsiella pneumonia
In short: as §1

Proteus vulgaris = experiment: MIC against Gram-negative bacteria: Proteus vulgaris
In short: as §1

Citrobacter diversus = experiment: MIC against Gram-negative bacteria: Citrobacter diversus
In short: as §1

Proteus mirabilis = experiment: MIC against Gram-negative bacteria: Proteus mirabilis
In short: as §1

Aeromonas hydrophila = experiment: MIC against Gram-negative bacteria: Aeromonas hydrophila
In short: as §1

[1] = P. aeruginosa, 10 h cultivation at 37° C., 5×10^5 CFU/mL
[2] = 10 h cultivation at 37° C., 5×10^5 CFU/mL
[3] = M. catarrhalis, 10 h cultivation at 37° C., 5×10^5 CFU/mL
[4] = E. cloacae, 10 h cultivation at 37° C., 5×10^5 CFU/mL
[5] = S. marcescens, 10 h cultivation at 37° C., 5×10^5 CFU/mL
[6] = K. pneumonia, 10 h cultivation at 37° C., 5×10^5 CFU/mL
[7] = P. vulgaris, 10 h cultivation at 37° C., 5×10^5 CFU/mL
[8] = C. diversus, 10 h cultivation at 37° C., 5×10^5 CFU/mL
[9] = P. mirabilis, 10 h cultivation at 37° C., 5×10^5 CFU/mL
[10] = A. hydrophila, 10 h cultivation at 37° C., 5×10^5 CFU/mL
[11] = 10 h cultivation at 37° C., 5×10^5 CFU/mL, two-fold serial dilution
[12] = Pseudomonas aeruginosa, 96-well plate, 5×10^5 CFU/mL, 37° C., 10 h
[13] = 96-well plate, 5×10^5 CFU/mL, 37° C., 10 h
[14] = Moraxella catarrhalis, 96-well plate, 5×10^5 CFU/mL, 37° C., 10 h
[15] = Enterobacter cloacae, 96-well plate, 5×10^5 CFU/mL, 37° C., 10 h
[16] = Serratia marcescens, 96-well plate, 5×10^5 CFU/mL, 37° C., 10 h
[17] = Klebsiella pneumonia, 96-well plate, 5×10^5 CFU/mL, 37° C., 10 h
[18] = Proteus vulgaris, 96-well plate, 5×10^5 CFU/mL, 37° C., 10 h
[19] = Citrobacter diversus, 96-well plate, 5×10^5 CFU/mL, 37° C., 10 h
[20] = Proteus mirabilis, 96-well plate, 5×10^5 CFU/mL, 37° C., 10 h
[21] = Aeromonas hydrophila, 96-well plate, 5×10^5 CFU/mL, 37° C., 10 h
[22] = Pseudomonas aeruginosa, 5×10^5 CFU/mL, 10 h cultivation at 37° C.
[23] = 5×10^5 CFU/mL, 10 h cultivation at 37° C.
[24] = Moraxella catarrhalis, 5×10^5 CFU/mL, 10 h cultivation at 37° C.
[25] = Enterobacter cloacae, 5×10^5 CFU/mL, 10 h cultivation at 37° C.
[26] = Serratia marcescens, 5×10^5 CFU/mL, 10 h cultivation at 37° C.
[27] = Klebsiella pneumonia, 5×10^5 CFU/mL, 10 h cultivation at 37° C.
[28] = Proteus vulgaris, 5×10^5 CFU/mL, 10 h cultivation at 37° C.
[29] = Citrobacter diversus, 5×10^5 CFU/mL, 10 h cultivation at 37° C.
[30] = Proteus mirabilis, 5×10^5 CFU/mL, 10 h cultivation at 37° C.
[31] = Aeromonas hydrophila, 5×10^5 CFU/mL, 10 h cultivation at 37° C.

## PRT426 (DINECTSLSEPCRPGFSCINTVGSYTCQRNPLICARGYHASDDGTKCV; listed as Homo sapiens)
Pseudomonas aeruginosa; [1]
  MIC: 50 µg/mL
E. coli BL21; [2]
  MIC: 50 µg/mL
Moraxella catarrhalis; [3]
  MIC: 12.5 µg/mL
E. coli DH5α
  MIC: 12.5 µg/mL
Enterobacter cloacae; [4]
  MIC: 50 µg/mL
Serratia marcescens; [5]
  MIC: 50 µg/mL
Klebsiella pneumonia; [6]
  MIC: 50 µg/mL
Proteus vulgaris; [7]
  MIC: 25 µg/mL
Citrobacter diversus; [8]
  MIC: 12.5 µg/mL
Proteus mirabilis; [9]
  MIC: 12.5 µg/mL
Aeromonas hydrophila; [10]
  MIC: 12.5 µg/mL

## PRT1113 (HVDPCHSAPCARGRCHTHPDGRFECRCPPGFGGPRCR; listed as Homo sapiens)
Pseudomonas aeruginosa; [11]
  MIC P. aeruginosa: 12.5 µg/mL
E. coli BL21; [11]
  MIC E. coli BL21: 12.5 µg/mL
Moraxella catarrhalis; [11]
  MIC M. catarrhalis: 12.5 µg/mL
E. coli DH5α
  MIC: 12.5 µg/mL
Enterobacter cloacae; [11]
  MIC E. cloacae: 12.5 µg/mL
Serratia marcescens; [11]
  MIC S. marcescens: 25 µg/mL
Klebsiella pneumonia; [11]
  MIC K. pneumonia: 12.5 µg/mL
Proteus vulgaris; [11]
  MIC P. vulgaris: 50 µg/mL
Citrobacter diversus; [11]
  MIC C. diversus: 50 µg/mL
Proteus mirabilis; [11]
  MIC P. mirabilis: 25 µg/mL
Aeromonas hydrophila; [11]
  MIC A. hydrophila: 12.5 µg/mL

## PRT132 (ISDRCLPNYCEHGGECSQSWSTFHCNCTNTGYRGATCH; listed as Homo sapiens)
Pseudomonas aeruginosa; [12]
  MIC (μg/mL) P. aeruginosa: 12.5 µg/mL
E. coli BL21; [13]
  MIC (μg/mL) E. coli BL21: 12.5 µg/mL
Moraxella catarrhalis; [14]
  MIC (μg/mL) M. catarrhalis: 12.5 µg/mL
E. coli DH5α
  MIC: 25 µg/mL
Enterobacter cloacae; [15]
  MIC (μg/mL) E. cloacae: 25 µg/mL
Serratia marcescens; [16]
  MIC (μg/mL) S. marcescens: 12.5 µg/mL
Klebsiella pneumonia; [17]
  MIC (μg/mL) K. pneumonia: 12.5 µg/mL
Proteus vulgaris; [18]
  MIC (μg/mL) P. vulgaris: 50 µg/mL
Citrobacter diversus; [19]
  MIC (μg/mL) C. diversus: 25 µg/mL
Proteus mirabilis; [20]
  MIC (μg/mL) P. mirabilis: 25 µg/mL
Aeromonas hydrophila; [21]
  MIC (μg/mL) A. hydrophila: 50 µg/mL

## PRT1480 (PGPCDSQPCQNGGTCVPEGLDGYQCLCPLAFGGEANCA; listed as Homo sapiens)
Pseudomonas aeruginosa; [22]
  MIC against P. aeruginosa: 25 µg/mL
E. coli BL21; [23]
  MIC against E. coli BL21: 12.5 µg/mL
Moraxella catarrhalis; [24]
  MIC against M. catarrhalis: 12.5 µg/mL
E. coli DH5α
  MIC: 50 µg/mL
Enterobacter cloacae; [25]
  MIC against E. cloacae: 25 µg/mL
Serratia marcescens; [26]
  MIC against S. marcescens: 50 µg/mL
Klebsiella pneumonia; [27]
  MIC against K. pneumonia: 12.5 µg/mL
Proteus vulgaris; [28]
  MIC against P. vulgaris: 12.5 µg/mL
Citrobacter diversus; [29]
  MIC against C. diversus: 25 µg/mL
Proteus mirabilis; [30]
  MIC against P. mirabilis: 50 µg/mL
Aeromonas hydrophila; [31]
  MIC against A. hydrophila: 12.5 µg/mL

## PRT789 (YGNDCHQRCQCQNGATCDHVTGECRCPPGYTGAFCE; listed as Homo sapiens)
Pseudomonas aeruginosa; [1]
  MIC (μg/mL) P. aeruginosa: 25 µg/mL
E. coli BL21; [2]
  MIC (μg/mL) E. coli BL21: 50 µg/mL
Moraxella catarrhalis; [3]
  MIC (μg/mL) M. catarrhalis: 25 µg/mL
E. coli DH5α
  MIC: 25 µg/mL
Enterobacter cloacae; [4]
  MIC (μg/mL) E. cloacae: 50 µg/mL
Serratia marcescens; [5]
  MIC (μg/mL) S. marcescens: 12.5 µg/mL
Klebsiella pneumonia; [6]
  MIC (μg/mL) K. pneumonia: 12.5 µg/mL
Proteus vulgaris; [7]
  MIC (μg/mL) P. vulgaris: 25 µg/mL
Citrobacter diversus; [8]
  MIC (μg/mL) C. diversus: 25 µg/mL
Proteus mirabilis; [9]
  MIC (μg/mL) P. mirabilis: 50 µg/mL
Aeromonas hydrophila; [10]
  MIC (μg/mL) A. hydrophila: 12.5 µg/mL

## PRT197 (LGYDCTTDKCNDRGVCNNKKHCHCSASYLPPDCS; listed as Homo sapiens)
Pseudomonas aeruginosa; [1]
  MIC (μg/mL) P. aeruginosa: 50 µg/mL
E. coli BL21; [2]
  MIC (μg/mL) E. coli BL21: 12.5 µg/mL
Moraxella catarrhalis; [3]
  MIC (μg/mL) M. catarrhalis: 12.5 µg/mL
E. coli DH5α
  MIC: 50 µg/mL
Enterobacter cloacae; [4]
  MIC (μg/mL) E. cloacae: 50 µg/mL
Serratia marcescens; [5]
  MIC (μg/mL) S. marcescens: 12.5 µg/mL
Klebsiella pneumonia; [6]
  MIC (μg/mL) K. pneumonia: 12.5 µg/mL
Proteus vulgaris; [7]
  MIC (μg/mL) P. vulgaris: 12.5 µg/mL
Citrobacter diversus; [8]
  MIC (μg/mL) C. diversus: 12.5 µg/mL
Proteus mirabilis; [9]
  MIC (μg/mL) P. mirabilis: 12.5 µg/mL
Aeromonas hydrophila; [10]
  MIC (μg/mL) A. hydrophila: 12.5 µg/mL

## PRT122 (CAPCQGNGVPVLKGSRCDCICPVGSQGLACE; listed as Homo sapiens)
Pseudomonas aeruginosa; [12]
  MIC (μg/mL) P. aeruginosa: 12.5 µg/mL
E. coli BL21; [13]
  MIC (μg/mL) E. coli BL21: 12.5 µg/mL
Moraxella catarrhalis; [14]
  MIC (μg/mL) M. catarrhalis: 25 µg/mL
E. coli DH5α
  MIC: 12.5 µg/mL
Enterobacter cloacae; [15]
  MIC (μg/mL) E. cloacae: 12.5 µg/mL
Serratia marcescens; [16]
  MIC (μg/mL) S. marcescens: 12.5 µg/mL
Klebsiella pneumonia; [17]
  MIC (μg/mL) K. pneumonia: 12.5 µg/mL
Proteus vulgaris; [18]
  MIC (μg/mL) P. vulgaris: 25 µg/mL
Citrobacter diversus; [19]
  MIC (μg/mL) C. diversus: 12.5 µg/mL
Proteus mirabilis; [20]
  MIC (μg/mL) P. mirabilis: 12.5 µg/mL
Aeromonas hydrophila; [21]
  MIC (μg/mL) A. hydrophila: 12.5 µg/mL

## PRT34 (ACHPGFYGPDCKLRCSCNNGEMCDRFQGCLCSPGWQGLQCE; listed as Homo sapiens)
Pseudomonas aeruginosa; [12]
  MIC (μg/mL) P. aeruginosa: 25 µg/mL
E. coli BL21; [13]
  MIC (μg/mL) E. coli BL21: 25 µg/mL
Moraxella catarrhalis; [14]
  MIC (μg/mL) M. catarrhalis: 12.5 µg/mL
E. coli DH5α
  MIC: 100 µg/mL
Enterobacter cloacae; [15]
  MIC (μg/mL) E. cloacae: 12.5 µg/mL
Serratia marcescens; [16]
  MIC (μg/mL) S. marcescens: 12.5 µg/mL
Klebsiella pneumonia; [17]
  MIC (μg/mL) K. pneumonia: 12.5 µg/mL
Proteus vulgaris; [18]
  MIC (μg/mL) P. vulgaris: 25 µg/mL
Citrobacter diversus; [19]
  MIC (μg/mL) C. diversus: 25 µg/mL
Proteus mirabilis; [20]
  MIC (μg/mL) P. mirabilis: 12.5 µg/mL
Aeromonas hydrophila; [21]
  MIC (μg/mL) A. hydrophila: 25 µg/mL

## PRT1412 (RASCPVLCSGNGQYMKGRCLCHSGWKGAECD; listed as Homo sapiens)
Pseudomonas aeruginosa; [22]
  MIC against P. aeruginosa: 25 µg/mL
E. coli BL21; [23]
  MIC against E. coli BL21: 50 µg/mL
Moraxella catarrhalis; [24]
  MIC against M. catarrhalis: 12.5 µg/mL
E. coli DH5α
  MIC: 25 µg/mL
Enterobacter cloacae; [25]
  MIC against E. cloacae: 25 µg/mL
Serratia marcescens; [26]
  MIC against S. marcescens: 25 µg/mL
Klebsiella pneumonia; [27]
  MIC against K. pneumonia: 12.5 µg/mL
Proteus vulgaris; [28]
  MIC against P. vulgaris: 50 µg/mL
Citrobacter diversus; [29]
  MIC against C. diversus: 25 µg/mL
Proteus mirabilis; [30]
  MIC against P. mirabilis: 25 µg/mL
Aeromonas hydrophila; [31]
  MIC against A. hydrophila: 50 µg/mL

## PRT967 (ARDACESQPCRAGGTCSSDGMGFHCTCPPGVQGRQCE; listed as Homo sapiens)
Pseudomonas aeruginosa; P. aeruginosa, 10 h cultivation at 37° C.
  MIC: 12.5 µg/mL
E. coli BL21; 10 h cultivation at 37° C.
  MIC: 12.5 µg/mL
Moraxella catarrhalis; M. catarrhalis, 10 h cultivation at 37° C.
  MIC: 25 µg/mL
E. coli DH5α
  MIC: 50 µg/mL
Enterobacter cloacae; E. cloacae, 10 h cultivation at 37° C.
  MIC: 12.5 µg/mL
Serratia marcescens; S. marcescens, 10 h cultivation at 37° C.
  MIC: 12.5 µg/mL
Klebsiella pneumonia; K. pneumonia, 10 h cultivation at 37° C.
  MIC: 25 µg/mL
Proteus vulgaris; P. vulgaris, 10 h cultivation at 37° C.
  MIC: 25 µg/mL
Citrobacter diversus; C. diversus, 10 h cultivation at 37° C.
  MIC: 12.5 µg/mL
Proteus mirabilis; P. mirabilis, 10 h cultivation at 37° C.
  MIC: 12.5 µg/mL
Aeromonas hydrophila; A. hydrophila, 10 h cultivation at 37° C.
  MIC: 25 µg/mL
